Assays:
H-Ras(M72C) GDP = H-Ras(M72C) GDP (Homo sapiens, UniProt P01112, M72C); test: Intrinsic nucleotide affinity by EDTA catalyzed nucleotide exchange (Raf-1-RBD pull down readout); format: biochemical; design: and H-Ras (residues 1-166) were transformed into Escherichia coli; His6; made in house; host or cells: Escherichia coli BL21(DE3)
Experimental: Intrinsic Nucleotide Affinity by EDTA Catalyzed Nucleotide Exchange. For each EDTA catalyzed reaction, the total reaction volume was 500 μL. Each reaction had the following final composition: 100 nM Ras GDP (1 μg, 5 μL of 0.2 mg/mL Ras stock), 75 nM BSA (2.5 μg, 5 μL of 0.5 mg/mL BSA stock), 100 μM total nucleotide concentration (5 μL of various ratios of GDP:GppNHp from 10 mM stock solutions), 10 mM of EDTA (10 μL of 0.5M EDTA pH 8.0), 64 mM of MgCl2 (16 μL of 2M MgCl2 stock), 3 μM of His6-MBP-Raf-1-RBDwitt (80 μg, 18.3 μL of 4.38 mg/mL stock of His6-MBP-Raf-1-RBDwitt), and Raf Pull Down Buffer to volume (25 mM Tris (pH 7.2), 150 mM NaCl, 5 mM MgCl2, 1% NP-40, 5% glycerol, 20 mM imidazole). Prior to initiating the EDTA catalyzed nucleotide exchange, the Ras, BSA, nucleotide, and Raf Pull Down Buffer were mixed by pipette on ice. To each tube, the EDTA was added, sample was inverted X 3, and then placed in a pre-warmed tube rack at 30° C. The exchange was allowed to occur at 30° C. for 15 minutes, inverting each tube X 3 every 5 minutes. Once the 15 minutes of exchange was complete, MgCl2 was added to each tube and inverted X 3 and placed on ice for 15 minutes. During the quenching on ice, add 100 μL Ni-NTA slurry (Qiagen) to a cellulose acetate spin cup and spin at 5,000 rpm on a tabletop centrifuge for 30 seconds. Wash the beads with 400 μL of Raf Pull Down Buffer to wash away bead storage buffer. Before adding the beads and His6-tagged Raf-1-RBDwitt, take a 10 μL sample as a loading control and quench it with 5 μL 5×SDS loading buffer. To each spin cup filled with washed Ni-NTA beads, add the quenched EDTA catalyzed exchange reaction and the His6-tagged Raf-1-RBDwitt. Seal the spin cup with parafilm and let rotate at 4° C. for 1 h. After mixing, centrifuge the sample for 30 seconds at 5,000 rpm. Toss flow through. Wash the beads×5 with 400 μL of Raf Pull Down Buffer. After last wash, centrifuge one last time to remove any excess buffer stuck to the beads. To each cup, add 50 μL of 5×SDS loading buffer and mix by vortexing. Let the buffer sit on the beads for 5 minutes and then elute into a fresh tube by centrifuging at 5000 rpm for 1.5 minutes. Load 10 μL of each loading control sample and 25 μL of each eluted pull down onto a SDS-PAGE gel and transfer to a nitrocellulose blot for Western Blot analysis. Block with 5% BSA TBS buffer and then blot with pan Ras primary antibody at a 1:500 dilution in 5% BSA in TBST (Cell Signaling #3965). Blots were read out using LICOR compatible secondary antibodies and quantified. Signal from each GDP-only (i.e. 0% GppNHp) exchange was subtracted as background from the 20%, 50%, and 66% GppNHp pull-down signals for each protein construct. The signal for the GppNHp only lane (i.e. 100% GppNHp) was normalized to 1 and all other signals were made relative to this band within each protein construct tested.

[1] = biological target: T1, H-Ras(M72C) GDP binding to SOScat (Homo sapiens, UniProt P01112, M72C); test: SOScat pull-down of H-Ras(M72C) GDP; conditions: SOScat pull-down of H-Ras(M72C) GDP at various concentrations of H-Ras
T1 construct: and H-Ras (residues 1-166) were transformed into Escherichia coli; His6; made in house; host or cells: Escherichia coli BL21(DE3)

[2] = biological target: T2, full-length wild-type K-Ras (Homo sapiens, UniProt P01116); test: Disulfide fragment labeling of full-length wild-type K-Ras (Cys 72 selectivity); format: binding; conditions: wild-type K-Ras contains 4 native cysteine residues
T2 construct: His6; made in house; host or cells: Escherichia coli BL21(DE3)
T2 sequence (P01116 1-188 isoform P01116-2): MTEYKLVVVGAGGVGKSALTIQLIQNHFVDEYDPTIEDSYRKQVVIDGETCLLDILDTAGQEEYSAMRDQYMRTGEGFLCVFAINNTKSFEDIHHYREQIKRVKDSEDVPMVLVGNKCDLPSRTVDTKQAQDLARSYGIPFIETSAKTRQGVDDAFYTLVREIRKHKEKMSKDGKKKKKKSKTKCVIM

H-Ras(M72C) GppNHp = H-Ras(M72C) GppNHp (Homo sapiens, UniProt P01112, M72C); test: βME50 and percent labeling of tethering fragments, GppNHp state; format: binding; design: Labeling studies were conducted using the 1-166 H-Ras(M72C) construct containing all endogenous cysteines; His6; made in house; host or cells: Escherichia coli BL21(DE3)
Experimental: FIG. 32. […] Percent labeling against H-Ras(M72C) GDP and GppNHp at the screening βME concentration (1 mM) are graphed.
A tethering library of 960 disulfides were screened against 1-169 K-Ras(M72C) GDP using intact protein mass spectrometry to monitor percent modification (See Methods, and FIG. 37). […] To better prioritize tethering fragments, a βME50 value (the concentration of βME needed to reduce disulfide fragment modification to 50%) was determined for each compound. A higher βME50 value corresponds to a better fragment as it can bind with increasing concentrations of competitive thiol (Erlanson et al., 2004; Yang et al., 2009).

COc1ccc(-n2ncc(C(=O)NCCCSSCCN(C)C)c2C(F)(F)F)cc1 [Compound 2C07, N-(3-((2-(dimethylamino)ethyl)disulfanyl)propyl)-1-(4-methoxyphenyl)-5-(trifluoromethyl)-1H-pyrazole-4-carboxamide]
Normalized Average (Nucleotide Exchange PD Assay) (H-Ras(M72C) GDP; H-Ras(M72C) 2C07, GppNHp only, normalized to 1): 1.00 | Normalized Average (Nucleotide Exchange PD Assay) (H-Ras(M72C) GDP; H-Ras(M72C) 2C07, GTP:GDP 0, background subtracted): 0.00 | Normalized Average (Nucleotide Exchange PD Assay) (H-Ras(M72C) GDP; H-Ras(M72C) 2C07, GTP:GDP 0.2, relative to GppNHp-only signal): 0.03 | Normalized Average (Nucleotide Exchange PD Assay) (H-Ras(M72C) GDP; H-Ras(M72C) 2C07, GTP:GDP 0.5, relative to GppNHp-only signal): 0.12 | Normalized Average (Nucleotide Exchange PD Assay) (H-Ras(M72C) GDP; H-Ras(M72C) 2C07, GTP:GDP 0.67, relative to GppNHp-only signal): 0.13 | nucleotide preference of 2C07 bound Ras (H-Ras(M72C) GDP; varying ratios of GDP:GppNHp, EDTA catalyzed exchange): nucleotide preference for GDP over GppNHp | SOS binding [1]: inhibits SOS binding | modification of full-length wild-type K-Ras [2]: did not modify | βME50 (H-Ras(M72C) GppNHp; H-Ras(M72C) GppNHp, βME concentration that reduces fragment modification to 50%): 1.10 mM | labeling of H-Ras(M72C) GppNHp (H-Ras(M72C) GppNHp; disulfide tethering at Cys 72): readily modifies

Source: patent US11136297B2, “Compositions and methods for treating cancer” (THE REGENTS OF THE UNIVERSITY OF CALIFORNIA, priority 2016, dated 2021)
